Among the data in patent US20070043102A1, “Oral suspension of tegaserod” (priority 2003, published 2007) are time stable values, retold here.

The data set in a line: Stability study of the oral suspensions (HPLC assay and degradation products). The format is physicochemical. As for the experimental part: The stability study is performed for maximum 3 days at the storage conditions of room temperature (about 20-25° C.) and/or 5° C. ( fridge). The start point (TO) is performed about 1 minute after preparation. Furthermore, a “24 hours” and “3 days” time point at room temperature and 5° C. is performed.
Analytical methods: For each time-point tested, the degradation products of Tegaserod by HPLC are evaluated. Analytical methods are based on Test Methods described below.
Procedure for assay determination: For each time-point, one tablet is crushed according to the above procedure. The crushed tablet is transferred quantitatively into a 100 ml amber glass volumetric flask. 50 ml of the beverage is carefully added and the suspension is shaken vigorously by hand a few time and allowed to stand for the storage time tested. The suspension is re-homogenized, by shaking by hand. For extraction, the flask is filled to the mark with methanol (about 50 ml) then shaken for 30 minutes under magnetic stirring, sonicated for 10 minutes and shaken for 30 minutes under magnetic stirring. An aliquot of the methanol solution is centrifuged. The clear supernatant of the above solution is used as the test solution and is analyzed by HPLC (Isocratic HPLC on reversed phase RP-8 with UV detection). The same procedure is carried out once for each beverage but without tablet powder and the resulting chromatograms are compared for new appearance of any peak.
Procedure for determination of degradation products: In order to enable to reach a sufficiently low limit to quantify the degradation products, the number of tablets to be crushed is increased. For each time-point, 6 tablets for 2 mg dosage strength (or 5 tablets for 6 mg dosage strength) are crushed according to the above procedure. The crushed tablet is transferred quantitatively into a 20 ml for 2 mg dosage strength (or 50 ml amber glass volumetric flask for 6 mg dosage strength). 10 ml for 2 mg dosage strength (or 25 ml for 6 mg dosage strength) of the beverage are added carefully. The suspension is shaken vigorously by hand a few time and is allowed to stand for the storage time tested. The suspension is re-homogenized by shaking by hand. For extraction, the flask is filled to the mark with acetonitrile and is shaken for 30 minutes under magnetic stirring, sonicated for 10 minutes and shaken for 30 minutes under magnetic stirring. An aliquot of the homogenized solution is centrifuged.
The clear supernatant of the above solution is used as the test solution in order to quantify using a gradient HPLC on reversed phase RP-8 with UV detection. The same procedure is carried out once for each beverage but without crushed tablet and the resulting chromatograms are compared and analyzed according to the scheme below.
Acceptance criteria: Tegaserod is assumed stable in the tested media if the following acceptance criteria are met for the time-points studied.

As to `CCCCCNC(=N)NN=Cc1c[nH]c2ccc(OC)cc12` [Tegaserod, 3-(5-methoxy-1H-indol-3-yl-methylene)-N-pentylcarbazimidamide], the time stable result is “at least 24 hours” (crushed tablet in apple juice, fridge (5° C.), 2 mg dosage strength); “up to 3 days” (crushed tablet in apple juice, fridge (5° C.), 6 mg dosage strength); “at least 1 hour” (crushed tablet in apple juice, room temperature); “at least 24 hours” (crushed tablet in orange juice, fridge (5° C.), 2 mg dosage strength); “up to 3 days” (crushed tablet in orange juice, fridge (5° C.), 6 mg dosage strength); “at least 1 hour” (crushed tablet in orange juice, room temperature). In addition, the time stable result reads like this: (crushed tablet in water, fridge (5° C.), 2 mg dosage strength) “at least 24 hours”; (crushed tablet in water, fridge (5° C.), 6 mg dosage strength) “up to 3 days”; (crushed tablet in water, room temperature) “at least 1 hour”.
